The source made the active and inactive calls.
Tests used:
[1] = target: T1, Rac GTPase-activating protein 1 (Homo sapiens, UniProt Q9H0H5); experiment: blockers of MgcRacGAP-driven Rac1 GTP hydrolysis – biochemical, ADP Hunter fluorescence, primary and confirmatory, confirmation (AID 624330); format: functional
T1 sequence (Q9H0H5 whole entry): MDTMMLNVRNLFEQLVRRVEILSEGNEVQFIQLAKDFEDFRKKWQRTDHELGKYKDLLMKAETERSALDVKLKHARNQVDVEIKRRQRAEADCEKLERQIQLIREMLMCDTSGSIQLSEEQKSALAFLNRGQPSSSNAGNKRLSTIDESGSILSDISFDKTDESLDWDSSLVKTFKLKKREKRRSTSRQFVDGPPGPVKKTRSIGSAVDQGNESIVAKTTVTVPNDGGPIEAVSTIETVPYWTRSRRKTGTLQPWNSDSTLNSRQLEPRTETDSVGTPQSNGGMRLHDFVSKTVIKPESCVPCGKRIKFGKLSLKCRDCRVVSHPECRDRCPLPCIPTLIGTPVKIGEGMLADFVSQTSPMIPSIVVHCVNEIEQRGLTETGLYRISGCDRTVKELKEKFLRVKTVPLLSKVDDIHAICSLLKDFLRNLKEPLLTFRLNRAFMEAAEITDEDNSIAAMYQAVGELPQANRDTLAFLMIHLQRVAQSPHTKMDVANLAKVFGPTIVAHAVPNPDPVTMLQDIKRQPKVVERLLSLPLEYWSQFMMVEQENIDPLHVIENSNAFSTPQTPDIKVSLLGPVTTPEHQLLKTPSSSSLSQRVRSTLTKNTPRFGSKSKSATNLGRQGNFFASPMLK

SUMO-activating enzyme [2] = target: T2, SUMO-activating enzyme (Homo sapiens, UniProt Q9UBT2); experiment: blockers of SAE1/SAE2–UBC9 SUMO transfer – biochemical, HTRF, uHTS, primary screen (AID 2006); format: protein-complex assay
SUMO-activating enzyme [3] = target: T2, SUMO-activating enzyme; experiment: blockers of UBC9-mediated SUMO conjugation – biochemical, AlphaScreen, SUMOylation inhibitor project, confirmation (AID 2018); format: functional
cells = format: functional
Protein RecA = target: T3, Protein RecA (Mycobacterium tuberculosis, UniProt P9WHJ3); experiment: Fluorescence Cell-Free Homogeneous Dose Retest to Identify Inhibitors of RecA-Intein Splicing Activity. [Related pubchem assays (depositor defined):AID2097, AID2223, AID489010, AID492950]; format: functional
T3 sequence (P9WHJ3 whole entry): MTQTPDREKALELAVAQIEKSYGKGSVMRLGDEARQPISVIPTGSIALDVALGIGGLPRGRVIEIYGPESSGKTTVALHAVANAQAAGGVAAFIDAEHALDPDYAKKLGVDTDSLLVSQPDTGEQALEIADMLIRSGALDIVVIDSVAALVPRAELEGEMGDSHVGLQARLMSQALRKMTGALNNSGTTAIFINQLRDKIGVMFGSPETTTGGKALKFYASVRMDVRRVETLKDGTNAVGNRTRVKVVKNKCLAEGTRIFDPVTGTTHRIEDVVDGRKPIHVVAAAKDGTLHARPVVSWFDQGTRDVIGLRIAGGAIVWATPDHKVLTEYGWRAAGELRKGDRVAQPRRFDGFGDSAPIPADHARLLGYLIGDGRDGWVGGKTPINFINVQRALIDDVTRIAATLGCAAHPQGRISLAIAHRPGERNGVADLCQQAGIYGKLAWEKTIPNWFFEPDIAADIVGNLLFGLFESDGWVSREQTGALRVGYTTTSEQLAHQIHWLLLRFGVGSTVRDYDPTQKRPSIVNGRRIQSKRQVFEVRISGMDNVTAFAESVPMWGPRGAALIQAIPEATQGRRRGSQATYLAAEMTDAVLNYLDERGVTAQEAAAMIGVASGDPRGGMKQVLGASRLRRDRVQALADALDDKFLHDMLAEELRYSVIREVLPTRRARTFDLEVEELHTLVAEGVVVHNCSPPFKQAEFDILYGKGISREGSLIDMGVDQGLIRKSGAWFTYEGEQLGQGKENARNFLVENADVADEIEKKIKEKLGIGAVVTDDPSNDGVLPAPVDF

[4] = target: T4, Replicative DNA helicase DnaB (Mycobacterium tuberculosis, UniProt P9WMR3); experiment: DnaB intein splicing inhibitors, dose response, biochemical, cell-free fluorescence (AID 449749); format: functional
T4 sequence (P9WMR3 whole entry): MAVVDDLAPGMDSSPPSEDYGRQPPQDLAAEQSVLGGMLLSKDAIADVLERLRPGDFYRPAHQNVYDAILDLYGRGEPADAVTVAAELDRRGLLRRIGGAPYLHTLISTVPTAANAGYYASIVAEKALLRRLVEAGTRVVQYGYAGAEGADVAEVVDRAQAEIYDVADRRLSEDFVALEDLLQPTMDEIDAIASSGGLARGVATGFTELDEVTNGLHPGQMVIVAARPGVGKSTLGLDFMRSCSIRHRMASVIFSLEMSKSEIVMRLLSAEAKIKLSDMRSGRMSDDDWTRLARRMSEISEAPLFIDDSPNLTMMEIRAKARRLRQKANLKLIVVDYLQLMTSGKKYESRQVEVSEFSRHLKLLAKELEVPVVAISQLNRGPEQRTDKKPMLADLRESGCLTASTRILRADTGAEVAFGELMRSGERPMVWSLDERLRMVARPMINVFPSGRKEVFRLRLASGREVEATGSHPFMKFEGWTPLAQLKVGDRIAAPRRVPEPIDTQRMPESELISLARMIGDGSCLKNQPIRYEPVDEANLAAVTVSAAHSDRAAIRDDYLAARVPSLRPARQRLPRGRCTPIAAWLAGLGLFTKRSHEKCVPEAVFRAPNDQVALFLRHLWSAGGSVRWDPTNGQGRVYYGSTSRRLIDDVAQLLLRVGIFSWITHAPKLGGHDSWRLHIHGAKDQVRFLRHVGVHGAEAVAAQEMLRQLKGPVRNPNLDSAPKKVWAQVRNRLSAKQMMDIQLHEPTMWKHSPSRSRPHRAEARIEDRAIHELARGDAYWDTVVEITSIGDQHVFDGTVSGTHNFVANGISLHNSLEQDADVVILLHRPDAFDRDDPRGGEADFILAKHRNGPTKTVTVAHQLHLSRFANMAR

Genome polyprotein = Genome polyprotein (dengue virus type 2, UniProt P29990); experiment: flavivirus cap methylation enzyme inhibition – biochemical, confirmation dose response, primary screen (AID 588689); format: functional
[5] = target: Glucose-6-phosphate 1-dehydrogenase (Homo sapiens, UniProt P11413); experiment: inhibition of Homo sapiens G6PD, dose series – biochemical, fluorescence, selectivity assay for P. falciparum G6PD inhibitor project, dose response (AID 504792); format: functional
[6] = target: T5, Corticotropin-releasing factor receptor 2/Corticotropin-releasing factor-binding protein (Homo sapiens, UniProt P24387+Q13324); experiment: activators of CRF receptor 2 with binding protein – uHTS hits, confirmation (AID 602473); format: functional; conditions: read-out: EC50_Mean
T5 sequence (Q13324 whole entry): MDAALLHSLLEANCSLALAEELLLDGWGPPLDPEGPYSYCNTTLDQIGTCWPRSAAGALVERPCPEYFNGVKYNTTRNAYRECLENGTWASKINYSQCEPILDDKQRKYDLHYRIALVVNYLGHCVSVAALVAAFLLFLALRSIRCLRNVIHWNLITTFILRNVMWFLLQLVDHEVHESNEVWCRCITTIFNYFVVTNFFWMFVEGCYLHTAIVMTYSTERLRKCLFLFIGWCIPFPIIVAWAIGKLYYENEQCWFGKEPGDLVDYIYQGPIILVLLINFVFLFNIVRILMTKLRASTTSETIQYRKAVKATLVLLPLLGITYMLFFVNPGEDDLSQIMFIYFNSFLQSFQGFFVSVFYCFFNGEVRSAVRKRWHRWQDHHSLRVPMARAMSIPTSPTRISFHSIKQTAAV
T5 sequence (P24387 whole entry): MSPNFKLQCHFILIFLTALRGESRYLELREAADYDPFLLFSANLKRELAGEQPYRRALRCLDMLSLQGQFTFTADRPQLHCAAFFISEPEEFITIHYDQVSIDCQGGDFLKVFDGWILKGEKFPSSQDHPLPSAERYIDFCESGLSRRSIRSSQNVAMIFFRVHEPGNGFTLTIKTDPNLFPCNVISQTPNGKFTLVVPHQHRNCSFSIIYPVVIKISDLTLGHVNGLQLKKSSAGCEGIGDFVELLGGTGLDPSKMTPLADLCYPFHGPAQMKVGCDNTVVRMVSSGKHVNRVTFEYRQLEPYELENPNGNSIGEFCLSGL

A-375 = experiment: MITF: Counter assay: A375 proliferation Measured in Cell-Based System Using Plate Reader - 2084-03_Inhibitor_Dose_DryPowder_Activity. [Related pubchem assays (depositor defined):AID488944]; format: functional; conditions: Homo sapiens
[7] = target: T6, Microphthalmia-associated transcription factor (Homo sapiens, UniProt O75030); experiment: reducers of TRPM1 reporter luminescence, concentration series – cell-based, SK-MEL-5, cherry-picked, set 3, MITF inhibitor project, dose response (AID 493073); format: functional;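 also: SK-MEL-5 melanoma cells with luciferase driven by the MITF target TRPM1 promoter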
T6 sequence (O75030 whole entry): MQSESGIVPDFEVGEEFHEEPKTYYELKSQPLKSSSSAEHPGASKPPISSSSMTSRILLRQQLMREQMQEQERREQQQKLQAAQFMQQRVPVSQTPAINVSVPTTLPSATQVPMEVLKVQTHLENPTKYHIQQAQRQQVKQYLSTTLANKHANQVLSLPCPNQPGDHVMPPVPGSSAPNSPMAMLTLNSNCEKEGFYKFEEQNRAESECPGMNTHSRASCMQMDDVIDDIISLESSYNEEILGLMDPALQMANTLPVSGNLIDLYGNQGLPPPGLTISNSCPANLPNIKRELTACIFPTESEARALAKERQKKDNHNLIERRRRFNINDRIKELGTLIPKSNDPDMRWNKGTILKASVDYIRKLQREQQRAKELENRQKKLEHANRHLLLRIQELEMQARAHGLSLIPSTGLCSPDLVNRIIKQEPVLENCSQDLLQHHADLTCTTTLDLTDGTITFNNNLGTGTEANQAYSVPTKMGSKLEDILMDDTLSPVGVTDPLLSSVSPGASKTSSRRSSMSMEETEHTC

[8] = target: T7, Tyrosine-protein phosphatase non-receptor type 22 (Homo sapiens, UniProt Q9Y2R2); format: functional
T7 sequence (Q9Y2R2 whole entry): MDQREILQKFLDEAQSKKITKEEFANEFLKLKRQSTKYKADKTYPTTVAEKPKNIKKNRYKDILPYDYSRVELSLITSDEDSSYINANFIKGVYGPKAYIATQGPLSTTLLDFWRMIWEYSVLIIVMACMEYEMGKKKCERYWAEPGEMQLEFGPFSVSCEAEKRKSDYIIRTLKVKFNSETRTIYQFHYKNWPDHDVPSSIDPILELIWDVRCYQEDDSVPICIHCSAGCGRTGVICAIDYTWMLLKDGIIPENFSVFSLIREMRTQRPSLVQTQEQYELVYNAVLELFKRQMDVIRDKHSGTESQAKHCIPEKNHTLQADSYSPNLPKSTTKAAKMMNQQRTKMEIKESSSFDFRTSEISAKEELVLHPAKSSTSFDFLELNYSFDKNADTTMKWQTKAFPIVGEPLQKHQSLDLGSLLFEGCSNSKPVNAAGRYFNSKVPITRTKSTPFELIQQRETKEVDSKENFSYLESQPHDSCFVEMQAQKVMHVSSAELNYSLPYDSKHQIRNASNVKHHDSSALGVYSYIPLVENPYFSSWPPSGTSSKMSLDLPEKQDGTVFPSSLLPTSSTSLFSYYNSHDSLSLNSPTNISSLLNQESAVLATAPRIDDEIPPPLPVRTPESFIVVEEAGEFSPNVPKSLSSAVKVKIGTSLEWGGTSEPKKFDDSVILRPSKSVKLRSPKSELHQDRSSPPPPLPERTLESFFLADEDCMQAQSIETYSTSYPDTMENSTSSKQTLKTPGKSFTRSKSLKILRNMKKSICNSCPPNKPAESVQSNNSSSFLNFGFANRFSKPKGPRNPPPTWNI

[9] = target: T8, Tyrosine-protein phosphatase non-receptor type 7 (Homo sapiens, UniProt P35236); format: functional
T8 sequence (P35236 whole entry): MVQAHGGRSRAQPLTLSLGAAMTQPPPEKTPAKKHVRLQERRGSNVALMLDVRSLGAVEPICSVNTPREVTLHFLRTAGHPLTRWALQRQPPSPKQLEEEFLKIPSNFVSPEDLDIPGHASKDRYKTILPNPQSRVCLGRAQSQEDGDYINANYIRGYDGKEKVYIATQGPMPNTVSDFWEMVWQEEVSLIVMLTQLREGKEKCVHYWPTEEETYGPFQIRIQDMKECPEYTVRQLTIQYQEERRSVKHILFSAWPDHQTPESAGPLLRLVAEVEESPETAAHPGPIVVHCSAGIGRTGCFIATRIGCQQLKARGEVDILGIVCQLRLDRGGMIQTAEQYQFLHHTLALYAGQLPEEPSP

[10] = target: T7, Tyrosine-protein phosphatase non-receptor type 22; format: functional; remark: listed apart in the source

T2 sequence (Q9UBE0 whole entry): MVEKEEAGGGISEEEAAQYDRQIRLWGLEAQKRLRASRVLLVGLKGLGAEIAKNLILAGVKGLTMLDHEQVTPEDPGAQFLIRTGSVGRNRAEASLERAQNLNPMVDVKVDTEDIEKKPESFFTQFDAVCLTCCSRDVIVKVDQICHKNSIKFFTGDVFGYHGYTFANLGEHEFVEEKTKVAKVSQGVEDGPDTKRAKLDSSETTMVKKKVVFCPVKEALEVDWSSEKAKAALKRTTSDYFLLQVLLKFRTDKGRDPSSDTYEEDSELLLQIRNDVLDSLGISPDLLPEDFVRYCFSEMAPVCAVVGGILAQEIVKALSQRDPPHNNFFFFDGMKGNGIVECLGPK
T2 sequence (Q9UBT2 whole entry): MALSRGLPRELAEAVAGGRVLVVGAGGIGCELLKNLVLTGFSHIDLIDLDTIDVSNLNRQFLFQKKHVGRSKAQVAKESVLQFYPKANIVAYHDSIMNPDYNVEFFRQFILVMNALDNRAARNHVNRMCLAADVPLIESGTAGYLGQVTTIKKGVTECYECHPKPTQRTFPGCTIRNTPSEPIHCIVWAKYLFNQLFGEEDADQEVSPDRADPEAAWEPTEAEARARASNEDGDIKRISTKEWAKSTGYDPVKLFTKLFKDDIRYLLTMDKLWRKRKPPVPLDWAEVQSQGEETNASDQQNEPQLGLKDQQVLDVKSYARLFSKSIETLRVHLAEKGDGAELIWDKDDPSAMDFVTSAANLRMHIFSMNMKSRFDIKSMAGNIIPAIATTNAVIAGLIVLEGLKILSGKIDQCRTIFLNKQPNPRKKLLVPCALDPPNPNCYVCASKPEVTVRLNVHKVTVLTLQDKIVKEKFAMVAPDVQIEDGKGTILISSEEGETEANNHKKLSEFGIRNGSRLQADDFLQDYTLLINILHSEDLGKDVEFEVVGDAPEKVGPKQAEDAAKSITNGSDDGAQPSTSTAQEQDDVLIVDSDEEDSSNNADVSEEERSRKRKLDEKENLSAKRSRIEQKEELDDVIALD
Sequence of Genome polyprotein (P29990 2492-3391 limits assumed): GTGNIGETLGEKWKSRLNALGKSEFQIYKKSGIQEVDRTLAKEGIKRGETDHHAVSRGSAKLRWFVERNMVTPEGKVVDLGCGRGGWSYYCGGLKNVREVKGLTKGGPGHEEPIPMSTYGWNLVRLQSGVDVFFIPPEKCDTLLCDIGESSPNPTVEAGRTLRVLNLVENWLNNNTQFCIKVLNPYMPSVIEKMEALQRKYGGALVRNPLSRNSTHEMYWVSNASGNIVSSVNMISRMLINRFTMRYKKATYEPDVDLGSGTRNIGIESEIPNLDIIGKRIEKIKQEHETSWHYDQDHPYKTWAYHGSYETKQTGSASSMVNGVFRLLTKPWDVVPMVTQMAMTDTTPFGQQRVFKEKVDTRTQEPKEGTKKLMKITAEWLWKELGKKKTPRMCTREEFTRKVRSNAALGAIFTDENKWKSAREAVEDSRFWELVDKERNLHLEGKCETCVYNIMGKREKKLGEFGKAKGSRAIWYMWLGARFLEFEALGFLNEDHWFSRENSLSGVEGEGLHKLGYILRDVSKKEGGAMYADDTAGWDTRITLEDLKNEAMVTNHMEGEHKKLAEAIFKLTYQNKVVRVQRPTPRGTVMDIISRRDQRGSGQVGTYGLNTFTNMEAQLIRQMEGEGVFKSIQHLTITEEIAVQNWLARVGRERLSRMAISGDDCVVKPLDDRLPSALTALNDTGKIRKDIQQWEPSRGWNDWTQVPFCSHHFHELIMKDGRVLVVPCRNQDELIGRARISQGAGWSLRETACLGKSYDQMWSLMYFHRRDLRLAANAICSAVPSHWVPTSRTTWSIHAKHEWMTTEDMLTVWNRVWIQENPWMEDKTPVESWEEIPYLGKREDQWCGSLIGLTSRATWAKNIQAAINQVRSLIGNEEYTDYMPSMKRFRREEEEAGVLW
Sequence of Glucose-6-phosphate 1-dehydrogenase (P11413 whole entry): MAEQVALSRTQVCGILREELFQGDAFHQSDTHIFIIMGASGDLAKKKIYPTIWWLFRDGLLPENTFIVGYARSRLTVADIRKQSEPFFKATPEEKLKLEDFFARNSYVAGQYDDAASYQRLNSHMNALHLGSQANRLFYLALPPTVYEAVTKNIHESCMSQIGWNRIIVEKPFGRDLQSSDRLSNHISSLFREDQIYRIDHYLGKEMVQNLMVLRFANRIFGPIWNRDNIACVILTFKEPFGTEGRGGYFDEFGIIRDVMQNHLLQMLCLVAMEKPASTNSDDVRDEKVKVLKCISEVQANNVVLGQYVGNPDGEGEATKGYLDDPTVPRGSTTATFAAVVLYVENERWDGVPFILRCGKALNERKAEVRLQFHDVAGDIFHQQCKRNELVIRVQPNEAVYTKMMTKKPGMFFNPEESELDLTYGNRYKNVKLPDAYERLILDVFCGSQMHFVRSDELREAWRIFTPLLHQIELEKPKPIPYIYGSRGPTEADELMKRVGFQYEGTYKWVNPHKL

Row | Structure (SMILES) | IC50 (SUMO-activating enzyme [2]) | IC50 (SUMO-activating enzyme [3]) | EC50 (Protein RecA) | AC50 [4] | AC50 (A-375) | AC50 [7] | also measured
1 | CC1=NN(c2ccc(C(=O)O)cc2)C(=O)/C1=C\c1ccc(OC(=O)c2cccs2)cc1 | 57.7 µM (active) | 7.86 µM (active) | 1.9 µM (active) | 2.08 µM (active) | – | – | IC50 [1]: 185 µM (active); IC50 (cells): 15.1 µM (active); IC50 (Genome polyprotein): 15.6 µM (active)
2 | N#Cc1ccc(N=c2ssnc2Cl)cc1 | – | – | – | – | – | – | IC50 [5]: 48.3 µM (inactive)
3 | CCOC(=O)/C=c1/s/c(=C/c2ccc3cc(OC)ccc3c2)c(=O)n1CC(=O)NCC1CCCO1 (stereo not given) | – | – | – | – | 29.7 µM (active) | 6.79 µM (active) | EC50 [6]: 7.75 µM (active)
4 | Cc1nn(-c2ccc(Cl)cc2)c(O)c1C(c1cccc(O)c1)c1c(C)[nH]n(-c2ccc(Cl)cc2)c1=O (stereo not given) | 47.8 µM (active) | 4.08 µM (active) | 0.897 µM (active) | 1.36 µM (active) | – | – | –
5 | CN(C)c1ccc(/C=C(\C#N)c2ccccn2)cc1 | – | – | – | – | 45.2 µM (active) | 6.32 µM (active) | –
6 | CCOc1ccccc1NC(=O)CSc1nnc(Cc2cccn2C)n1-c1ccc(F)cc1 | – | – | – | – | – | – | IC50 [8]: > 79.4 µM (inactive); IC50 [9]: > 79.4 µM (inactive); IC50 [10]: > 79.4 µM (inactive)

Source: ChEMBL document CHEMBL1201862, “PubChem BioAssay data set” (2004)
